Experimental findings from US8178678B2, “Bis-quaternary ammonium salts and methods for modulating neuronal nicotinic acetylcholine receptors” (University of Kentucky Research Foundation, priority 2006, dated 2012) are described below.

For test [1], the target named is T1, Rat Striatal Nicotinic Receptors ([^3H]MLA binding sites; α7) (Rattus norvegicus, UniProt Q05941).
T1 construct: Whole brain, excluding cortex and cerebellum, was homogenized in 20 vol of ice-cold buffer; from tissue; host or cells: rat brain membranes (whole brain excluding cortex and cerebellum)
Description: Inhibition of [^3H]MLA (methyllycaconitine) binding. The conditions noted are these: [^3H]MLA, nonspecific S-nicotine, rat brain membranes; for inhibition at 0.1 µM: 100 nM analog, read-out: [^3H]MLA binding, % inhibition. Put shortly: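 Rat brain membranes were washed by repeated centrifugation at 25,000 g, with a 10 min incubation at 37° C. in between. Samples of 250 μl, containing 100-140 μg of membrane protein, 3 nM [^3H]-methyllycaconitine and test analog in 50 mM Tris assay buffer, were incubated in 96-well plates for 60 min at room temperature. Nonspecific binding was defined with 10 μM S-nicotine. Bound radioactivity was collected on polyethylenimine-soaked GF/B filter plates and counted on a TopCount.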

The target of test [2] is T2, Rat Striatal Nicotinic Receptors ([^3H]NIC binding sites; α4β2) (Rattus norvegicus, UniProt P09483+P12390).
T2 construct: Whole brain, excluding cortex and cerebellum, was homogenized in 20 vol of ice-cold buffer; from tissue; host or cells: rat brain membranes (whole brain excluding cortex and cerebellum)
Description: Inhibition of [^3H]NIC binding. The conditions noted are these: full concentration effect; 3 nM [^3H]NIC; nonspecific 10 μM cytisine; rat brain membranes; read-out: [^3H]NIC binding, Ki.

The target of test [3] is T2, Rat Striatal Nicotinic Receptors ([^3H]NIC binding sites; α4β2). Description: Inhibition of [^3H]NIC binding. The conditions noted are these: 1 h; 100 nM analog; 3 nM [^3H]NIC; nonspecific 10 μM cytisine; rat brain membranes.
The subject of test [4] is nicotinic receptors mediating S-nicotine-evoked [^3H]DA release in rat striatal slices. Description: Inhibition of S-nicotine-evoked [^3H]dopamine release from superfused rat striatal slices. The class given is cell-based. As to conditions: 1 h; 100 nM analog superfused 60 min before NIC 10 μM; rat striatal slices; read-out: [^3H]DA release, % inhibition of S-nicotine-evoked release. On the procedure: Rat striatal slices (500 μm thickness, 6-8 mg wet weight) were incubated for 30 minutes in Krebs buffer (118 mM NaCl, 4.7 mM KCl, 1.2 mM MgCl2, 1.0 mM NaH2PO4, 1.3 mM CaCl2, 11.1 mM glucose, 25 mM NaHCO3, 0.11 mM L-ascorbic acid, and 0.004 mM disodium EDTA; pH 7.4, and saturated with 95% O2/5% CO2) in a metabolic shaker at 34° C. Slices were rinsed with 15 mL of fresh buffer and incubated for an additional 30 minutes in fresh buffer containing 0.1 μM [^3H]dopamine (DA; 6 slices/3 mL). Subsequently, slices were rinsed with 15 mL of fresh buffer and transferred to a glass superfusion chamber. Slices were superfused (1.0 mL/min) for 60 minutes with Krebs buffer containing nomifensine (10 μM) and pargyline (10 μM) and maintained at 34° C., pH 7.4, with continual aeration (95% O2/5% CO2). Two five minute samples (5 mL each) were collected to determine basal outflow of [^3H]DA. The bis-quaternary ammonium analogs were added to the superfusion buffer after the collection of the second sample and remained in the buffer until 12 consecutive five minute samples were collected. Subsequently, S-nicotine (NIC; 10 μM) was added to the buffer and an additional 12 consecutive five minute samples were collected. At the end of the experiment, each slice was solubilized and the [^3H] content of the tissue determined.
Radioactivity in the superfusate and tissue samples was determined by liquid scintillation spectroscopy. Fractional release for tritium collected in each sample was divided by the total tritium present in the tissue at the time of sample collection and was expressed as a percentage of total tritium. Basal [^3H]outflow was calculated from the average of the tritium collected in the two five minute samples just before addition of the quaternary analog. The sum of the increase in collected tritium resulting from either exposure to the test compound or exposure to S-nicotine in the absence and presence of the test compound equaled total [^3H]overflow. [^3H]Overflow was calculated by subtracting the [^3H]outflow during an equivalent period of prestimulation from the values in samples collected during and after drug exposure. Inasmuch as the radiolabelled compounds were not separated and identified, the tritium collected in superfusate is referred to as either [3H]outflow or [^3H]overflow, rather than as [^3H]DA. [^3H]Overflow primarily represents [^3H]DA in the presence of nomifensine and pargyline in the superfusion buffer.
The bis-quaternary ammonium analogs were also evaluated for their ability to inhibit NIC evoked [^3H]DA release. In these experiments, the striatal slices were superfused for 60 minutes with 100 nM concentration of the quaternary analogs prior to NIC (10 μM) exposure. Antagonist activity was evaluated by comparing the NIC-evoked [^3 H]overflow in the absence and presence of the analogs. The relative order of potency of the quaternary analogs for inhibition of NIC-evoked [^3H]DA release from rat striatal slices is illustrated in Table 1.
^aData are % inhibition at 100 nM concentration of the bis-quaternary ammonium analogs for at least 1-3 independent experiments; with the exception of when a Ki value in μM is provided, in which case a full concentration effect was evaluated. Specific binding in the [^3H]NIC binding assay is calculated as the difference between the total binding of 3 nM [^3H]NIC and nonspecific binding in the presence of 10 μM cold cytisine. Specific binding for the [^3H]MLA binding assay is calculated as the difference between the total binding of […] [^3H]MLA to the receptors alone and its nonspecific binding in the presence of […] cold S-nicotine. Analog-induced inhibition of S-nicotine-evoked [^3H]DA release is calculated as a percent of that in the absence of the bis-quaternary ammonium analog.

pKi: −log10 of the molar value.

T2 sequence (P09483 31-630): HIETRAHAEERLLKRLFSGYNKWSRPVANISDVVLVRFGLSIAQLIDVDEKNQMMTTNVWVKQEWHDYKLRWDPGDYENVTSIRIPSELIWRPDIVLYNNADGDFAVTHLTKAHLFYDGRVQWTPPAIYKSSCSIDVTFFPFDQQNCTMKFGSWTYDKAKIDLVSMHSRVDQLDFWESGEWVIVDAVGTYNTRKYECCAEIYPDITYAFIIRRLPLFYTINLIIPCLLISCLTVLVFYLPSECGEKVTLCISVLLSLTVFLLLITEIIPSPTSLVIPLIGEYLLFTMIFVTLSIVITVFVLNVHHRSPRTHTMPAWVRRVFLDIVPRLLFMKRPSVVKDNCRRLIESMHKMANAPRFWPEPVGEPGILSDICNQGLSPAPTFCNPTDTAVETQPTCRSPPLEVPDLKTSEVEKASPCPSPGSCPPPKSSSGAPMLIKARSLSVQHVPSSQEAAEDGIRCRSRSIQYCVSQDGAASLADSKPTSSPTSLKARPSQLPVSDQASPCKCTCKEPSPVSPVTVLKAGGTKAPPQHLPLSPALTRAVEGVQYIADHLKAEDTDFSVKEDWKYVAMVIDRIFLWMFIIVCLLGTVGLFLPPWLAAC
T2 sequence (P12390 25-500): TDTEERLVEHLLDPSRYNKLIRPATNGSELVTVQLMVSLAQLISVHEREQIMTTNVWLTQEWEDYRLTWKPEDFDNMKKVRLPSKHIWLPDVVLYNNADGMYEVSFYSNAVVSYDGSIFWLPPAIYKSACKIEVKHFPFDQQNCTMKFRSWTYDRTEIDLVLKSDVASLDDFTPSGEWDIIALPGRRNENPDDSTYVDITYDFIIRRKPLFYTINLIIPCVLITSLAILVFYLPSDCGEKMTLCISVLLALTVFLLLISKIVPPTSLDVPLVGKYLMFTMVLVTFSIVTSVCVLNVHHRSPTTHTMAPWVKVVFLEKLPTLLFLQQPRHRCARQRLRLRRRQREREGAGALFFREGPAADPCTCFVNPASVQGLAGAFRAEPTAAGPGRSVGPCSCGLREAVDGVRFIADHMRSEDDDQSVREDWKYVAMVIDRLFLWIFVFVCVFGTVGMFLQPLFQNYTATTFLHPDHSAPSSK
T1 sequence (Q05941 23-502): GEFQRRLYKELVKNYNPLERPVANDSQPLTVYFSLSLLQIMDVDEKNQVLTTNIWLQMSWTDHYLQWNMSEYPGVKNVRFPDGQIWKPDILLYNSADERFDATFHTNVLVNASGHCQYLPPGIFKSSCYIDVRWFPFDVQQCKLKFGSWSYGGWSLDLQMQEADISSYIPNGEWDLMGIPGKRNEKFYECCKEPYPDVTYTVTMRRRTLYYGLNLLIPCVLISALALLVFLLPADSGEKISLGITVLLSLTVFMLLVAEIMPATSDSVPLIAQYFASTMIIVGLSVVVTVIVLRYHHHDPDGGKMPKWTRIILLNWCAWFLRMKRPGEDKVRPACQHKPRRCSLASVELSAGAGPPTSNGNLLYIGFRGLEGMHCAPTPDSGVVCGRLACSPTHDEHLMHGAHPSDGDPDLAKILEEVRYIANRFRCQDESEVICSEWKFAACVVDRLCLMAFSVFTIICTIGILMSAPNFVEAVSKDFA

As to `c1cc2c([n+](CCCCc3ccc(CCCC[n+]4cccc5c4CCCC5)cc3)c1)CCCC2` [Example 15, N,N′-[1,4-phenylenedi-(4-butanyl)]-bis-(5,6,7,8-tetrahydroquinolinium)dibromide], the pKi (in general, the negative decadic logarithm of the Ki, by convention in mol/L) in test [1] (full concentration effect, read-out: [^3H]MLA binding, Ki) was 5.11; in test [2] it was 4.92.

For `Cc1cc[n+](CCCCCc2ccccc2CCCCC[n+]2ccc(C)cc2)cc1` [Example 36, 1,2-bis-[5-(4-methyl-pyridinium)-pentyl]-benzene dibromide], the results for the inhibition at 0.1 µM in test [3], in test [1] and in test [4] were 0%, 3.1% and 11%, respectively.

Turning to `Cc1cc[n+](CCCC#Cc2cccc(C#CCCC[n+]3ccc(C)c(C)c3)c2)cc1C` [Example 52, 1,3-bis-[5-(3,4-dimethyl-pyridinium)-pent-1-ynyl]-benzene dibromide], the inhibition (as a rule, the relative decrease from the control value, in per cent) at 0.1 µM in test [3] stood at 11%; in test [1], 3.3%; in test [4] it was 11%.

For `OCCCc1ccc[n+](CCCCc2ccc(CCCC[n+]3cccc(CCCO)c3)cc2)c1` [Example 17, N,N′-[1,4-phenylenedi-(4-butanyl)]-bis-[3-(3-hydroxy-propyl)-pyridinium]dibromide], the inhibition at 0.1 µM in test [3] worked out at 0%; in test [1], 3%; in test [4], 40%.

As for `C(#Cc1cccc(C#CCCC[n+]2ccc3ccccc3c2)c1)CCC[n+]1ccc2ccccc2c1` [Example 55, 1,3-bis-(5-isoquinolinium-pent-1-ynyl)-benzene dibromide], the figures for the inhibition at 0.1 µM in test [3], in test [1] and in test [4] were 7.4%, 5.6% and 31%, respectively.

`Cc1cc[n+](CCCC#Cc2cccc(C#CCCC[n+]3ccc(C)cc3C)c2)c(C)c1` [Example 51, 1,3-bis-[5-(2,4-dimethyl-pyridinium)-pent-1-ynyl]-benzene dibromide]: the inhibition at 0.1 µM in test [3] was determined as 7%; in test [1], 5.5%; in test [4], 0%.

On to `CN1CCC[C@@H]1c1ccc[n+](CCCC#Cc2cccc(C#CCCC[n+]3cccc([C@H]4CCCN4C)c3)c2)c1` [Example 56, 1,3-bis-[5(2′-S-nicotinium-pent-1-ynyl)]benzene dibromide], for which the inhibition at 0.1 µM in test [3] stood at 3.1%; in test [1], 2.6%; in test [4], 18%.

Consider `c1cc[n+](CCCCCc2ccccc2CCCCC[n+]2ccccc2)cc1` [Example 45, 1,2-bis-(5-pyridinium-pentyl)-benzene dibromide], for which the inhibition at 0.1 µM in test [3] came out at 3.3%; in test [1] it was 1.9%; in test [4] it was 37%.

With `Cc1cc[n+](CCCC#Cc2ccccc2C#CCCC[n+]2ccc(C)cc2C)c(C)c1` [Example 26, 1,2-bis-[5-(2,4-dimethyl-pyridinium)-pent-1-ynyl]-benzene dibromide], the inhibition at 0.1 µM is 0% in test [3], 0% in test [1] and 18% in test [4].

Turning to `CN1CCC[C@@H]1c1ccc[n+](CCCC#Cc2ccccc2C#CCCC[n+]2cccc([C@@H]3CCCN3C)c2)c1` [Example 31, 1,2-bis-[5-(2′-S-nicotinium-pent-1-ynyl)]benzene dibromide], the inhibition at 0.1 µM was determined as 72% in test [3], 9.2% in test [1] and 35% in test [4].

Take `Cc1ccc[n+](CCCCCc2cccc(CCCCC[n+]3cccc(C)c3)c2)c1` [Example 63, 1,3-bis-[5-(3-methyl-pyridinium)-pentyl]-benzene dibromide]: the inhibition at 0.1 µM in test [3] was 3.5%; in test [1], 6.24%; in test [4], 45%.

On to `c1cc(CCCCC[n+]2cccc3ccccc32)cc(CCCCC[n+]2cccc3ccccc32)c1` [Example 68, 1,3-bis-(5-quinolinium-pentyl)-benzene dibromide], for which the inhibition at 0.1 µM amounted to 8.3% in test [3], 14% in test [1] and 16% in test [4].

Take `Cc1ccc[n+](CCOCCOCCOCC[n+]2cccc(C)c2)c1` [Example 82, N,N′-{2,2′-[oxybis-(2,1-ethandiyloxy)]bis-ethyl}-bis(3-methylpyridinium)dichloride]: the values for the inhibition at 0.1 µM in test [3], in test [1] and in test [4] were 17%, 13% and 58%, respectively.

For `Cc1cc(C)c[n+](CCCCCc2ccccc2CCCCC[n+]2cc(C)cc(C)c2)c1` [Example 39, 1,2-bis-[5-(3,5-dimethyl-pyridinium)-pentyl]-benzene dibromide], the inhibition at 0.1 µM in test [3] came out at 0.7%; in test [1], 0%; in test [4] it was 47%.

Take `c1cc(CCCCC[n+]2ccc3ccccc3c2)cc(CCCCC[n+]2ccc3ccccc3c2)c1` [Example 69, 1,3-bis-(5-isoquinolinium-pentyl)-benzene dibromide]: the inhibition at 0.1 µM in test [3] amounted to 8.8%; in test [1], 5.2%; in test [4], 0%.

As to `Cc1cccc[n+]1CCCCCc1cccc(CCCCC[n+]2ccccc2C)c1` [Example 62, 1,3-bis-[5-(2-methyl-pyridinium)-pentyl]-benzene dibromide], the inhibition at 0.1 µM in test [3] worked out at 7.2%; in test [1] it was 0%; in test [4] it was 62%.

Take `Cc1ccc[n+](CCCC#Cc2ccccc2C#CCCC[n+]2cccc(C)c2)c1` [Example 24, 1,2-bis-[5-(3-methyl-pyridinium)-pent-1-ynyl]-benzene dibromide]: the results for the inhibition at 0.1 µM in test [3], in test [1] and in test [4] were 3.9%, 0% and 46%, respectively.

Turning to `C(#Cc1ccccc1C#CCCC[n+]1ccc2ccccc2c1)CCC[n+]1ccc2ccccc2c1` [Example 30, 1,2-bis-(5-isoquinolinium-pent-1-ynyl)-benzene dibromide], the inhibition at 0.1 µM in test [3] stood at 1.6%; in test [1] it was 1.1%; in test [4] it was 24%.

On to `C(#Cc1cccc(C#CCCC[n+]2ccccc2)c1)CCC[n+]1ccccc1` [Example 59, 1,3-bis-(5-pyridinium-pent-1-ynyl)-benzene dibromide], for which the inhibition at 0.1 µM in test [3] is 3.6%; in test [1], 4.4%; in test [4], 12%.

As to `Cc1cc[n+](CCCCCc2ccccc2CCCCC[n+]2ccc(C)cc2C)c(C)c1` [Example 37, 1,2-bis-[5-(2,4-dimethyl-pyridinium)-pentyl]-benzene dibromide], the inhibition at 0.1 µM in test [3] was 0%; in test [1] it was 4.8%; in test [4] it was 20%.
